Assay results from patent US20240335443A1, “IMIDAZOLOPYRIDAZINE OR PYRAZOLOPYRIMIDINE COMPOUNDS AND COMPOSITIONS” (Anrui Biomedical Technology (Guangzhou) Co., Ltd., priority 2021, published 2024).
Where a name gives a salt, the structure may show the parent alone. Read-outs that look alike come from different tables or passages of the source.

Legend:
[1] = molecular target: T1, N-terminal His-tagged TYK2 pseudokinase domain (Homo sapiens, UniProt P29597); assay: TYK2 JH2 domain SPA binding assay; conditions: displacement of H3 probe (20 nM), 30 min room temperature; class symbols
T1 construct: the N-terminal His-tagged TYK2 pseudokinase domain; His (N); purchased Pharmaron
Procedure: TYK2 JH2 Domain Binding Assay
After incubating at room temperature for 30 min, the inhibition was calculated by the displacement of [3H] 3 binding as determined by scintillation counting. Dose-response curves were generated to determine the concentration required to inhibit H3 probe binding by […] (IC50).

[2] = system: IL-23 induced STAT3 in HEK-Blue™ IL-23 cells; assay: IL-23 induced STAT3 QUANTI-Blue reporter assay in HEK-Blue IL-23 cells; format: cell-based; conditions: IL-23 0.1 ng/mL, SEAP levels, class symbols, read-out: IL23 reporter assay (IC50 nM)
Procedure: Biological Example 2. IL-23 Induced STAT3 QUANTI-Blue in HEK-Blue™ IL-23 Cells
HEK-Blue™ IL-23 cells were prepared at 2×10^5 cells/ml for adding 5000 cell/well and incubate plates containing compounds+cells for 1 hour at 37° C. Prepare IL-23 (treatment at final conc. 0.1 ng/mL) during incubation and add 2 ul per well of prepared cytokine in media to appropriate wells. The plate is incubated for overnight at 37° C. The next day, QUANTI-Blue solution is prepared. 18 ul of QUANTI-Blue solution per well is added into a new 384-well clear flat bottom plate, then add 2 ul of induced and treated HEK-Blue cell supernatant from overnight plate. Incubate the plate at 37° C. for 2 hours and determine SEAP levels.

[3] = HEK-Blue IL-23, HEK-Blue IL-23 cells

T1 sequence (P29597 589-875 limits assumed): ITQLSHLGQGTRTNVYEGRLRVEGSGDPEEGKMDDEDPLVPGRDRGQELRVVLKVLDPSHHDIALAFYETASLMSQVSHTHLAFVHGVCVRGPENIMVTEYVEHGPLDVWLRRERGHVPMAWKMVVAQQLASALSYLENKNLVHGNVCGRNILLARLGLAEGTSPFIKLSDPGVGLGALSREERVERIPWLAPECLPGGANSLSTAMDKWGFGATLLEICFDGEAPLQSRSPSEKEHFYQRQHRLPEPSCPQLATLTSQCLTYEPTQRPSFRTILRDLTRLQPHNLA

SMILES | IC50 [1] [nM] | IC50 ([2]; HEK-Blue IL-23 cells) [nM] | IC50 [2, 3] [nM]
[2H]C([2H])([2H])Nc1cc(Nc2cccn(C3CC4(CCOC4)C3)c2=O)nn2c(C(=O)N[C@@H]3C[C@@H]3F)cnc12 (single isomer, unassigned) [Compound 102b] | 10 to 100 | 10 to 100 | –
[2H]C([2H])([2H])Nc1cc(Nc2cccn(C3CC4(CCOC4)C3)c2=O)nc2c(C(=O)N[C@@H]3C[C@@H]3F)cnn12 (single isomer, unassigned) [Compound 103a] | 10 to 100 | – | 10 to 100
[2H]C([2H])([2H])Nc1cc(Nc2cccn(C3CC4(CCOC4)C3)c2=O)nc2c(C(=O)N[C@@H]3C[C@@H]3F)cnn12 (single isomer, unassigned) [Compound 103b] | 100 to 1000 | 10 to 100 | –
[2H]C([2H])([2H])Nc1cc(Nc2cccn(C3CC4(CCCO4)C3)c2=O)nn2c(C(=O)N[C@@H]3C[C@@H]3F)cnc12 (single isomer, unassigned) [Compound 104a] | 10 to 100 | – | 10 to 100
[2H]C([2H])([2H])Nc1cc(Nc2cccn(C3CC4(CCCO4)C3)c2=O)nn2c(C(=O)N[C@@H]3C[C@@H]3F)cnc12 (single isomer, unassigned) [Compound 104b] | 10 to 100 | 10 to 100 | –
CNc1cc(Nc2cccn(C3CC4CCOC43)c2=O)nn2c(C(=O)N[C@@H]3C[C@@H]3F)cnc12 (single isomer, unassigned) [Compound 105a] | 100 to 1000 | – | 10 to 100
CNc1cc(Nc2cccn(C3CC4CCOC43)c2=O)nn2c(C(=O)N[C@@H]3C[C@@H]3F)cnc12 (single isomer, unassigned) [Compound 105b] | 100 to 1000 | 10 to 100 | –
CNc1cc(Nc2cccn(C3CC4CCOC43)c2=O)nn2c(C(=O)N[C@@H]3C[C@@H]3F)cnc12 (single isomer, unassigned) [Compound 105c] | 10 to 100 | 10 to 100 | –
CNc1cc(Nc2cccn(C3CC4CCOC43)c2=O)nn2c(C(=O)N[C@@H]3C[C@@H]3F)cnc12 (single isomer, unassigned) [Compound 105d] | 10 to 100 | < 10 | –
CNc1cc(Nc2cccn(-c3ncccc3F)c2=O)nn2c(C(=O)N[C@@H]3C[C@H]4CCO[C@H]43)cnc12 [Compound 1, N-((1R,5S,7R)-2-oxabicyclo[3.2.0]heptan-7-yl)-6-((3′-fluoro-2-oxo-2H-[1,2′-bipyridin]-3-yl)amino)-8-(methylamino)imidazo[1,2-b]pyridazine-3-carboxamide] | 10 to 100 | – | < 10
[2H]C([2H])([2H])Nc1cc(Nc2cccn(-c3ncccc3F)c2=O)nn2c(C(=O)N[C@@H]3C[C@H]4CCO[C@H]43)cnc12 [Compound 5, N-((1R,5S,7R)-2-oxabicyclo[3.2.0]heptan-7-yl)-6-((3′-fluoro-2-oxo-2H-[1,2′-bipyridin]-3-yl)amino)-8-((methyl-d3)amino)imidazo[1,2-b]pyridazine-3-carboxamide] | 10 to 100 | – | < 10
CNc1cc(Nc2cccc3c2OCCC3)nn2c(C(=O)NC3CCn4ccnc43)cnc12 (stereo not shown) [Compound 6, 6-(chroman-8-ylamino)-N-(6,7-dihydro-5H-pyrrolo[1,2-a]imidazol-7-yl)-8-(methylamino)imidazo[1,2-b]pyridazine-3-carboxamide] | < 10 | – | < 10
CNc1cc(Nc2cccn(-c3ccccn3)c2=O)nn2c(C(=O)NC3CCc4conc43)cnc12 (stereo not shown) [Compound 7, N-(5,6-dihydro-4H-cyclopenta[c]isoxazol-6-yl)-8-(methylamino)-6-((2-oxo-2H-[1,2′-bipyridin]-3-yl)amino)imidazo[1,2-b]pyridazine-3-carboxamide] | < 10 | – | < 10
[2H]c1onc2c1CCC2NC(=O)c1cnc2c(NC)cc(Nc3cccn(-c4ccccn4)c3=O)nn12 (stereo not shown) [Compound 8, N-(5,6-dihydro-4H-cyclopenta[c]isoxazol-6-yl-3-d)-8-(methylamino)-6-((2-oxo-2H-[1,2′-bipyridin]-3-yl)amino)imidazo[1,2-b]pyridazine-3-carboxamide] | < 10 | – | < 10
CNc1cc(Nc2cccn(-c3ccccn3)c2=O)nn2c(C(=O)NC3CCc4scnc43)cnc12 (stereo not shown) [Compound 9, N-(5,6-dihydro-4H-cyclopenta[d]thiazol-4-yl)-8-(methylamino)-6-((2-oxo-2H-[1,2′-bipyridin]-3-yl)amino)imidazo[1,2-b]pyridazine-3-carboxamide] | < 10 | – | < 10
CNc1cc(Nc2cccn(C3CCC4(CC3)COC4)c2=O)nn2c(C(=O)N[C@@H]3C[C@H]4CCO[C@H]43)cnc12 [Compound 12, N-((1R,5S,7R)-2-oxabicyclo[3.2.0]heptan-7-yl)-8-(methylamino)-6-((2-oxo-1-(2-oxaspiro[3.5]nonan-7-yl)-1,2-dihydropyridin-3-yl)amino)imidazo[1,2-b]pyridazine-3-carboxamide] | < 10 | – | < 10
CNc1cc(Nc2cccn(C3C[C@H]4CC[C@@H](C3)O4)c2=O)nn2c(C(=O)N[C@@H]3C[C@H]4CCO[C@H]43)cnc12 (stereo partly drawn) [Compound 13, 6-((1-(cis-8-oxabicyclo[3.2.1]octan-3-yl)-2-oxo-1,2-dihydropyridin-3-yl)amino)-N-((1R,5S,7R)-2-oxabicyclo[3.2.0]heptan-7-yl)-8-(methylamino)imidazo[1,2-b]pyridazine-3-carboxamide] | 10 to 100 | – | < 10
[2H]C([2H])([2H])Nc1cc(Nc2cccn([C@@H]3C[C@H]4CCO[C@H]43)c2=O)nn2c(C(=O)N[C@@H]3C[C@H]4CCO[C@H]43)cnc12 [Compound 14, 6-((1-((1R,5S,7R)-2-oxabicyclo[3.2.0]heptan-7-yl)-2-oxo-1,2-dihydropyridin-3-yl)amino)-N-((1R,5S,7R)-2-oxabicyclo[3.2.0]heptan-7-yl)-8-((methyl-d3)amino)imidazo[1,2-b]pyridazine-3-carboxamide] | < 10 | – | < 10
[2H]C([2H])([2H])O[C@H]1CC[C@@H](n2cccc(Nc3cc(NC)c4ncc(C(=O)N[C@@H]5C[C@@H]5F)n4n3)c2=O)CC1 [Compound 15, N-((1R,2S)-2-fluorocyclopropyl)-6-((1-((1s,4s)-4-(methoxy-d3)cyclohexyl)-2-oxo-1,2-dihydropyridin-3-yl)amino)-8-(methylamino)imidazo[1,2-b]pyridazine-3-carboxamide hydrochloride] | 10 to 100 | – | 10 to 100
CNc1cc(Nc2cccn([C@H]3CC[C@H](OC)CC3)c2=O)nn2c(C(=O)N[C@@H]3C[C@@H]3F)cnc12 [Compound 16, N-((1R,2S)-2-fluorocyclopropyl)-6-((1-((1r,4r)-4-methoxycyclohexyl)-2-oxo-1,2-dihydropyridin-3-yl)amino)-8-(methylamino)imidazo[1,2-b]pyridazine-3-carboxamide] | 10 to 100 | – | < 10
CNc1cc(Nc2cccn(-c3ccccn3)c2=O)nc2c(C(=O)NC3CCn4ncnc43)cnn12 (stereo not shown) [Compound 17, N-(6,7-dihydro-5H-pyrrolo[1,2-b][1,2,4]triazol-7-yl)-7-(methylamino)-5-((2-oxo-2H-[1,2′-bipyridin]-3-yl)amino)pyrazolo[1,5-a]pyrimidine-3-carboxamide] | 10 to 100 | – | 10 to 100
CNc1cc(Nc2cccn(-c3ccccn3)c2=O)nc2c(C(=O)NC3CCn4ccnc43)cnn12 (stereo not shown) [Compound 18, N-(6,7-dihydro-5H-pyrrolo[1,2-a]imidazol-7-yl)-7-(methylamino)-5-((2-oxo-2H-[1,2′-bipyridin]-3-yl)amino)pyrazolo[1,5-a]pyrimidine-3-carboxamide] | < 10 | – | < 10
[2H]C([2H])([2H])Nc1cc(Nc2cccn([C@H]3C[C@H](OC([2H])([2H])[2H])C3)c2=O)nc2c(C(=O)N[C@@H]3C[C@H]4CCO[C@H]43)cnn12 [Compound 19, N-((1R,5S,7R)-2-oxabicyclo[3.2.0]heptan-7-yl)-5-((1-((1r,3r)-3-(methoxy-d3)cyclobutyl)-2-oxo-1,2-dihydropyridin-3-yl)amino)-7-((methyl-d3)amino)pyrazolo[1,5-a]pyrimidine-3-carboxamide] | 10 to 100 | – | 10 to 100
CNc1cc(Nc2cccc3c2OCCC3)nn2c(C(=O)NCc3ncco3)cnc12 [Compound 20] | < 10 | – | < 10
CNc1cc(Nc2cccc3c2OCCC3)nn2c(C(=O)NCc3nccn3C)cnc12 [Compound 21] | 10 to 100 | – | < 10
CNc1cc(Nc2cccn(-c3ccccc3F)c2=O)nn2c(C(=O)N[C@@H]3C[C@H]4CCO[C@H]43)cnc12 [Compound 44] | 10 to 100 | – | < 10
CNc1cc(Nc2cccn(-c3ccccc3F)c2=O)nn2c(C(=O)N[C@H]3C[C@@H]4CCO[C@@H]43)cnc12 [Compound 45] | 100 to 1000 | – | ≥ 1000
CNc1cc(Nc2cccn(-c3ccccc3)c2=O)nn2c(C(=O)N[C@@H]3C[C@H]4CCO[C@H]43)cnc12 [Compound 46] | 10 to 100 | – | < 10
[2H]C([2H])([2H])Nc1cc(Nc2cccn(-c3ccn(C)n3)c2=O)nn2c(C(=O)N[C@@H]3C[C@H]4CCO[C@H]43)cnc12 [Compound 52] | < 10 | – | < 10
